Laboratory results: patent US10071163B2, “Compositions and methods for selective delivery of oligonucleotide molecules to specific neuron types” (nLife Therapeutics, S.L., priority 2010, dated 2018)

Columns and labels:
[1] = test system: 5-HTT mRNA; test: In situ hybridization of 5-HTT mRNA after intranasal 5-HTT-NLF-siRNA; format: in vivo, mice (C57BL/6J)
Description: Twenty-four h after treatment, mice were killed by decapitation and the brains rapidly removed, frozen on dry ice and stored at −20° C. Tissue sections, 14 μm thick, were cut using a microtome-cryostat, thaw-mounted onto APTS (3-aminopropyltriethoxysilane) coated slides and kept at −20° C. until use.
To determine 5-HTT mRNA expression level, in situ hybridization assays were performed using an oligodeoxyribonucleotide probe specific for 5-HIT, complementary to bases 820-863 (Mouse, GenBank Accession Number: NM_010484). The 5-HTT oligonucleotide was individually labeled (2 pmol) at its 3′-end with [^33P]-dATP (>2500 Ci/mmol) using terminal deoxynucleotidyltransferase, purified by centrifugation using QIAquick Nucleotide Removal Kit. The protocols for single label in situ hybridization were based on previously described procedures. Briefly, frozen tissue sections, as described in example 2, were first brought to room temperature, fixed for 20 min at 4° C. in 4% paraformaldehyde in phosphate buffered saline (1×PBS: 8 mM Na2HPO4, 1.4 mM KH2PO4, 136 mM NaCl, 2.6 mM KCl), washed for 5 min in 3×PBS at room temperature, twice for 5 min each in 1×PBS and incubated for 2 min at 21° C. in a solution of pre-digested pronase at a final concentration of 24 U/ml in 50 mM Tris-HCl pH 7.5, 5 mM EDTA. The enzymatic activity was stopped by immersion for 30 s in 2 mg/ml glycine in 1×PBS. […]

[2] = test system: serotonin transporter (5-HTT); test: [3H]citalopram autoradiographic binding of serotonin transporter after intranasal 5-HTT-NLF-siRNA; format: in vivo, mice; conditions: vs vehicle or NLF-nonsense-siRNA, FIG. 15B-C
From the text: 24-48. h after NLF-siRNA intranasal administration, mice were killed and their brains were removed and serial coronal sections of 14 μm thickness were obtained at the following AP coordinates, in mm, relative to bregma (Franklin and Paxinos, 1997): 2.2 (prefrontal cortex-PFC), 1.1 to 0.6 (caudate putamen—CPu, lateral and medial septal nucleus—Sep, ventral pallidum—VP), −1.5 to −1.8 (hippocampus—HPC, hypothalamus—Hip) and −4.24 to −4.96 (dorsal raphe nucleus—DR and median raphe nucleus—MnR). Briefly, frozen tissue sections were thawed and dried, preincubated in 50 mM Tris-HCl buffer (pH 7.4 at 25° C.) containing 120 mM NaCl and 5 mM KCl for 15 mm at room temperature. […] After incubation and washing, tissue sections were dipped in distilled ice-cold water and dried rapidly under a cold air stream. Tissues were exposed to tritium-sensitive film together with plastic ^3H-standards for 40 days at 4° C. Quantitative analysis of the autoradiograms was done with AIS computerized image analysis system. By using tissue-calibrated data from the co-exposed radioactive standards, OD values of autoradiograms were transformed to levels of radioactivity bound (nCi/mg tissue protein) to specific brain regions in tissue sections.

“5-HTT-NLF-siRNA: 5-HTT-targeted siRNA (SEQ ID NO 14/15) conjugated to a group of formula (I) and one targeting agent (sertraline) (chain 1 GCUAGCUACAACAAGUUCATT; chain 2 UGAACUUGUUGUAGCUAGCTT; further chemistry not given here)” was tested, and the “5-HTT mRNA level in dorsal (DR) and median (MnR) raphe nuclei” value ([1]; intranasal 10 and 30 μg, vs vehicle and nonsense-NLF-siRNA, FIG. 15A) was “reduction of 5-HTT mRNA level”, the “knockdown of 5-HTT mRNA in dorsal raphe nuclei” value ([1]; intranasal, both doses (10 and 30 μg/mice), three antero-posterior coordinates, FIG. 14A) was “specific knowdown of 5-HTT mRNA” and the “serotonin transporter levels in the different brain areas” value [2] was “reduction of the serotonin transporter levels”.
